Measurements reported in ChEMBL document CHEMBL1144786, “synthesis and biological evaluation of fully functionalized seco-pancratistatin analogues” (2008).
≈ marks a conversion by molar mass, not a printed value.

Tests used:
MCF7 = experiment: Cytotoxicity against human MCF7 cells; assay type: functional; conditions: read-out: ED50 (the source's name)
P388 = experiment: Cytotoxicity against mouse P388 cells; assay type: functional; conditions: read-out: ED50 (the source's name)

Row | Structure (SMILES) | EC50 (MCF7) | EC50 (P388)
1 | O=C(NC[C@@H](c1ccc2c(c1)OCO2)[C@@H](O)[C@H](O)[C@@H](O)CO)c1ccccc1 | > 30 µg/mL | 
2 | O=C1N[C@H]2C[C@H](O)[C@@H](O)C[C@@H]2c2cc3c(cc21)OCO3 |  | 0.45 µg/mL (≈ 1.62 µM)
3 | O=C1N[C@H]2[C@H](O)[C@H](O)[C@@H](O)[C@H](O)[C@@H]2c2cc3c(c(O)c21)OCO3 [PANCRATISTATIN] |  | 0.039 µg/mL (≈ 0.12 µM)
4 | CC1(C)O[C@@H]([C@H](O)[C@@H](CNC(=O)c2ccccc2)c2ccc3c(c2)OCO3)[C@H](CO)O1 | > 30 µg/mL | 
5 | O=C1N[C@H]2[C@H](O)[C@H](O)CC[C@@H]2c2cc3c(cc21)OCO3 |  | 1.39 µg/mL (≈ 5.01 µM)
